Settings: 293.15 K, Liquid, Vibrating tube method

CCCCCCCCCC [decane]
Settings | mass density [kg/m3]
23402 kPa | 746.3
23416 kPa | 746.3
23434 kPa | 746.3
23454 kPa | 746.4
23472 kPa | 746.4
23489 kPa | 746.5
23509 kPa | 746.5
23529 kPa | 746.5
23547 kPa | 746.5
23565 kPa | 746.5
23582 kPa | 746.5
23605 kPa | 746.6
23632 kPa | 746.7
23647 kPa | 746.6
23668 kPa | 746.5
23687 kPa | 746.7
23704 kPa | 746.6
23728 kPa | 746.7
23755 kPa | 746.6
23773 kPa | 746.6
23790 kPa | 746.7
23811 kPa | 746.7
23826 kPa | 746.6
23847 kPa | 746.7
23875 kPa | 746.7
23896 kPa | 746.8
23917 kPa | 746.8
23940 kPa | 746.7
23964 kPa | 746.9
23985 kPa | 746.9
24004 kPa | 746.7
24022 kPa | 747
24046 kPa | 746.8
24065 kPa | 746.8
24089 kPa | 746.8
24108 kPa | 746.9
24126 kPa | 746.9
24148 kPa | 746.9
24170 kPa | 746.9
24194 kPa | 746.9
24219 kPa | 747
24237 kPa | 747
24256 kPa | 746.9
24284 kPa | 747
24309 kPa | 747
24334 kPa | 747
24356 kPa | 747.1
24374 kPa | 747
24393 kPa | 747
24416 kPa | 747
24435 kPa | 747.1
24454 kPa | 747.1
24479 kPa | 747.1
24498 kPa | 747.1
24526 kPa | 747.1
24545 kPa | 747.1
24574 kPa | 747.2
24590 kPa | 747.2
24613 kPa | 747.1
24632 kPa | 747.2
24655 kPa | 747.3
24678 kPa | 747.2
24700 kPa | 747.2
24720 kPa | 747.2
24739 kPa | 747.2
24759 kPa | 747.4
24779 kPa | 747.4
24808 kPa | 747.3

Source: the NIST ThermoML archive (doi:10.1021/je800110r)
